Assay results published in BigSolDB 2.1.

COc1cc(N)nc(OC)n1
solubility (mole fraction)
Settings | 283.15 K | 288.15 K | 293.15 K | 298.15 K | 303.15 K | 308.15 K | 313.15 K | 318.15 K | 323.15 K
in DMF | 0.055 | 0.0726 | 0.0949 | 0.123 | 0.158 | 0.201 | 0.254 | 0.319 | 0.397
in ethanol | 0.0101 | 0.013 | 0.0164 | 0.0205 | 0.0253 | 0.0313 | 0.0383 | 0.0463 | 0.0561
in isopropanol | 0.00553 | 0.00742 | 0.0101 | 0.0133 | 0.0175 | 0.023 | 0.0297 | 0.038 | 0.0484
in methanol | 0.0181 | 0.0214 | 0.0254 | 0.0301 | 0.0352 | 0.0414 | 0.0482 | 0.0559 | 0.0643
in water | 0.000298 | 0.000347 | 0.000405 | 0.000464 | 0.000534 | 0.000614 | 0.000695 | 0.000788 | 0.000897
